Reference: PubChem BioAssay (NCI)
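Method: 48-hour compound exposure of cells in 96-well plates, five concentrations, linear interpolation of endpoints. GI50 is the concentration that inhibits growth by half. TGI marks complete inhibition of growth.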

Experiments:
Experiment in all cases: growth of human tumour cells (NCI), 48 h
ACHN renal = test system: ACHN renal
HCT-15 colon = test system: HCT-15 colon
IGROV1 ovarian = test system: IGROV1 ovarian
K-562 leukemia = test system: K-562 leukemia
M14 melanoma = test system: M14 melanoma
MALME-3M melanoma = test system: MALME-3M melanoma
MDA-MB-231 breast = test system: MDA-MB-231 breast
OVCAR-3 ovarian = test system: OVCAR-3 ovarian
RXF 393 renal = test system: RXF 393 renal
SK-MEL-28 melanoma = test system: SK-MEL-28 melanoma

Row | SMILES | GI50 (ACHN renal) [µM] | TGI (ACHN renal) [µM] | GI50 (HCT-15 colon) [µM] | TGI (HCT-15 colon) [µM] | GI50 (IGROV1 ovarian) [µM] | TGI (IGROV1 ovarian) [µM] | GI50 (K-562 leukemia) [µM] | TGI (K-562 leukemia) [µM] | GI50 (M14 melanoma) [µM] | TGI (M14 melanoma) [µM] | GI50 (MALME-3M melanoma) [µM] | TGI (MALME-3M melanoma) [µM] | GI50 (MDA-MB-231 breast) [µM] | TGI (MDA-MB-231 breast) [µM] | GI50 (OVCAR-3 ovarian) [µM] | TGI (OVCAR-3 ovarian) [µM] | GI50 (RXF 393 renal) [µM] | TGI (RXF 393 renal) [µM] | GI50 (SK-MEL-28 melanoma) [µM] | TGI (SK-MEL-28 melanoma) [µM]
1 | CCCCCCCC(=O)Nc1nc2[nH]c(CN3CCN(Cc4cccc(I)c4)CC3)c(CN3CCN(Cc4cccc(I)c4)CC3)c2c(=O)[nH]1 | 0.892 | 1.61 | 0.812 | 1.54 | 0.836 | 1.67 | 0.455 | 10.8 | 0.882 | 1.77 | 0.866 | 1.7 | 0.875 | 1.65 | 0.879 | 1.62 | 0.78 | 1.49 | 0.937 | 1.7
2 | Cn1cnc(SC2=CC(=O)C=C3S[C@H]4C[C@@]23c2c(c(O)c3c5c2=NCCC=5C=N3)N4)c1CC(N)C(=O)O (some centres undefined) | 15.6 | 29.1 | 18.4 | 33.7 | 11.6 | 23.9 | – | > 87 | 15.1 | 28.6 | 2.37 | 5.04 | 6.6 | 20.3 | 3.24 | 10.7 | 10.6 | 23.8 | 16.2 | 30.4
3 | CO[C@H]1/C=C/O[C@@]2(C)Oc3c(C)c(O)c4c(O)c(c(/C=N/N5C(C)CN(Cc6ccc(C#N)cc6)CC5C)c(O)c4c3C2=O)NC(=O)/C(C)=C\C=C\[C@H](C)[C@H](O)[C@@H](C)[C@@H](O)[C@@H](C)[C@H](OC(C)=O)[C@@H]1C (some centres undefined) | 7.89 | 16.2 | 6.01 | 14 | 7.61 | 16.4 | 6.71 | 25.3 | 7.6 | 16.2 | 8.56 | 20.5 | 7.49 | 14.9 | 6.99 | 13.5 | 8.88 | 19.4 | 8.45 | 16.4
4 | NC(=O)c1ccc(I)c([N+](=O)[O-])c1 | > 69.3 | > 100 | > 77.3 | > 100 | > 100 | > 100 | 30.2 | > 79.9 | > 86 | > 100 | 41 | > 72.9 | 49.5 | > 100 | 55 | > 100 | > 84.8 | > 100 | 98.7 | > 100
5 | COc1cccc(C2SC(C)C(=O)N2NC(=O)C(O)c2ccccc2)c1 (centres undefined) | > 100 | > 100 | > 100 | > 100 | > 100 | > 100 | > 100 | > 100 | > 100 | > 100 | > 100 | > 100 | > 100 | > 100 | > 100 | > 100 | > 100 | > 100 | > 100 | > 100
